Measurements published in PubChem BioAssay AID330 (DTP/NCI, 2004).
Where “and” joins values, the source holds several entries; their conditions need not be identical. Equal entries are not always repeated. Inconclusive results and toxic doses are left out.

System: P388 leukemia ip, CD2F1 mice, survival T/C
Assay: NCI In Vivo Anticancer Drug Screen. Data for tumor model P388 Leukemia (intraperitoneal) in CD2F1 (CDF1) mice
Conditions: endpoint: median survival time, higher = longer survival
Outline: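 Mice carrying the transplanted tumor received test compound or vehicle. Survival was recorded in each group, and the value is the treated-group measurement divided by that of the vehicle-treated control group.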

[1] = dose: 100.0 mg/kg/injection, schedule: Q04DX002 (ip), vehicle: saline
[2] = dose: 60.0 mg/kg/injection, schedule: Q01DX005 (ip), vehicle: saline with Tween-80
[3] = dose: 120.0 mg/kg/injection, schedule: Q01DX005 (ip), vehicle: saline with Tween-80
[4] = dose: 240.0 mg/kg/injection, schedule: Q01DX005 (ip), vehicle: saline with Tween-80
[5] = dose: 50.0 mg/kg/injection, schedule: Q01DX009 (ip), vehicle: saline with Tween-80
[6] = dose: 100.0 mg/kg/injection, schedule: Q01DX009 (ip), vehicle: saline with Tween-80
[7] = dose: 200.0 mg/kg/injection, schedule: Q01DX009 (ip), vehicle: saline with Tween-80
[8] = dose: 100.0 mg/kg/injection, schedule: Q04DX003 (ip), vehicle: saline with Tween-80
[9] = dose: 400.0 mg/kg/injection, schedule: Q04DX003 (ip), vehicle: saline with Tween-80
[10] = dose: 25.0 mg/kg/injection, schedule: Q01DX009 (ip), vehicle: saline with Tween-80
[11] = dose: 6.25 mg/kg/injection, schedule: Q04DX003 (ip), vehicle: saline with Tween-80
[12] = dose: 12.5 mg/kg/injection, schedule: Q04DX003 (ip), vehicle: saline with Tween-80
[13] = dose: 50.0 mg/kg/injection, schedule: Q01DX009 (ip), vehicle: saline
[14] = dose: 100.0 mg/kg/injection, schedule: Q01DX009 (ip), vehicle: saline
[15] = dose: 200.0 mg/kg/injection, schedule: Q01DX009 (ip), vehicle: saline

COc1ccc2c(c1)CCC1C2CCC2(C)C1CCC2(O)CCN (stereo unspecified)
T/C (dose: 25.0 mg/kg/injection, schedule: Q04DX002 (ip), vehicle: saline): 100 % of control
T/C (dose: 50.0 mg/kg/injection, schedule: Q04DX002 (ip), vehicle: saline): 101 % of control
T/C [1]: 104 % of control

CC(C)(C)c1ccc(N)c(C(O)(C(F)(F)F)C(F)(F)F)c1
T/C (dose: 30.0 mg/kg/injection, schedule: Q01DX005 (ip), vehicle: saline with Tween-80): 100 % of control and 90 % of control

CN1C(=S)C(=N)OC1c1ccc(Cl)cc1Cl (stereo unspecified)
T/C (dose: 60.0 mg/kg/injection, schedule: Q01DX005 (ip), vehicle: Klucel + Tween-80): 102 % of control
T/C (dose: 120.0 mg/kg/injection, schedule: Q01DX005 (ip), vehicle: Klucel + Tween-80): 94 % of control
T/C (dose: 240.0 mg/kg/injection, schedule: Q01DX005 (ip), vehicle: Klucel + Tween-80): 96 % of control

CC1Cn2c(Cc3ccccc3)nnc2S1 (stereo unspecified)
T/C [2]: 104 % of control
T/C [3]: 93 % of control
T/C [4]: 100 % of control

Clc1nc(Cl)c2[nH]c(Cl)nc2n1
T/C (dose: 50.0 mg/kg/injection, schedule: Q01DX005 (ip), vehicle: Klucel (hydroxypropylcellulose) (HPC)): 99 % of control
T/C (dose: 100.0 mg/kg/injection, schedule: Q01DX005 (ip), vehicle: Klucel (hydroxypropylcellulose) (HPC)): 99 % of control
T/C (dose: 200.0 mg/kg/injection, schedule: Q01DX005 (ip), vehicle: Klucel (hydroxypropylcellulose) (HPC)): 102 % of control

Nc1nc(N)c2nc(Sc3ccc(Cl)cc3)c(=O)[nH]c2n1
T/C [5]: 97 % of control
T/C [6]: 91 % of control
T/C [7]: 105 % of control

CCCCCCCCCCCCCCCCCCCC[N+]1(CC)CCOCC1
T/C [8]: 98 % of control
T/C (dose: 200.0 mg/kg/injection, schedule: Q04DX003 (ip), vehicle: saline with Tween-80): 99 % of control
T/C [9]: 96 % of control

CCn1c(O)c(N=NC(=N)SCC(C)C)c2ccccc21
T/C (dose: 6.25 mg/kg/injection, schedule: Q01DX009 (ip), vehicle: suspension in saline): 97 % of control
T/C (dose: 12.5 mg/kg/injection, schedule: Q01DX009 (ip), vehicle: suspension in saline): 94 % of control

OC(CC1CCCCN1)c1cc2c(Cl)cc(Cl)cc2c2cc(C(F)(F)F)ccc12 (stereo unspecified)
T/C (dose: 12.5 mg/kg/injection, schedule: Q01DX009 (ip), vehicle: saline with Tween-80): 95 % of control
T/C [10]: 104 % of control
T/C [5]: 101 % of control

O=C1CC(SC(=S)N2CCOCC2)C(=O)N1 (stereo unspecified)
T/C [1]: 99 % of control and 103 % of control
T/C (dose: 200.0 mg/kg/injection, schedule: Q04DX002 (ip), vehicle: saline): 99 % of control and 97 % of control
T/C (dose: 400.0 mg/kg/injection, schedule: Q04DX002 (ip), vehicle: saline): 100 % of control and 109 % of control

O=C(Nc1ccc(Cc2ccc(NC(=O)C34CC5CC(CC(C5)C3)C4)cc2)cc1)C12CC3CC(CC(C3)C1)C2
T/C (dose: 50.0 mg/kg/injection, schedule: Q01DX005 (ip), vehicle: saline with Tween-80): 88 % of control
T/C (dose: 100.0 mg/kg/injection, schedule: Q01DX005 (ip), vehicle: saline with Tween-80): 88 % of control

Nc1nc(N)c(N=O)c(Nc2ccc(Br)cc2)n1
T/C [8]: 91 % of control
T/C [9]: 95 % of control

CCC1=CC2CN(CCc3c([nH]c4ccccc34)C(C(=O)OC)(c3cc4c(cc3OC)N(C)C3C(O)(C(=O)OC)C(OC(C)=O)C5(CC)CCCN6CCC43C65)C2)C1 (stereo unspecified)
T/C (dose: 0.06 mg/kg/injection, schedule: Q01DX009 (ip), vehicle: water): 95 % of control
T/C (dose: 0.13 mg/kg/injection, schedule: Q01DX009 (ip), vehicle: water): 94 % of control
T/C (dose: 0.25 mg/kg/injection, schedule: Q01DX009 (ip), vehicle: water): 94 % of control
T/C (dose: 0.5 mg/kg/injection, schedule: Q01DX009 (ip), vehicle: water): 90 % of control
T/C (dose: 1.0 mg/kg/injection, schedule: Q01DX001 (ip), vehicle: water): 100 % of control and 115 % of control
T/C (dose: 1.0 mg/kg/injection, schedule: Q01DX009 (ip), vehicle: water): 90 % of control
T/C (dose: 2.0 mg/kg/injection, schedule: Q01DX001 (ip), vehicle: water): 107 % of control and 100 % of control
T/C (dose: 2.0 mg/kg/injection, schedule: Q01DX009 (ip), vehicle: water): 106 % of control and 110 % of control
T/C (dose: 4.0 mg/kg/injection, schedule: Q01DX001 (ip), vehicle: water): 110 % of control and 108 % of control
T/C (dose: 4.0 mg/kg/injection, schedule: Q01DX009 (ip), vehicle: water): 109 % of control and 111 % of control
T/C (dose: 8.0 mg/kg/injection, schedule: Q01DX001 (ip), vehicle: water): 119 % of control and 109 % of control and 115 % of control
T/C (dose: 8.0 mg/kg/injection, schedule: Q01DX009 (ip), vehicle: water): 122 % of control
T/C (dose: 16.0 mg/kg/injection, schedule: Q01DX001 (ip), vehicle: water): 122 % of control and 112 % of control and 116 % of control
T/C (dose: 32.0 mg/kg/injection, schedule: Q01DX001 (ip), vehicle: water): 122 % of control and 115 % of control and 119 % of control

COc1cc2c(cc1O)CCCC=C2C1CCCCc2cc(O)c(OC)cc21 (stereo unspecified)
T/C [6]: 104 % of control
T/C [7]: 94 % of control
T/C (dose: 400.0 mg/kg/injection, schedule: Q01DX009 (ip), vehicle: saline with Tween-80): 91 % of control

c1ccc2c(Nc3ccc(C4=NCCN4)cc3)nnc(Nc3ccc(C4=NCCN4)cc3)c2c1
T/C (dose: 3.13 mg/kg/injection, schedule: Q04DX003 (ip), vehicle: saline with Tween-80): 100 % of control
T/C [11]: 110 % of control
T/C [12]: 110 % of control
T/C [10]: 195 % of control
T/C [5]: 210 % of control
T/C [6]: 250 % of control
T/C [8]: 154 % of control and 168 % of control

CS(=O)(=O)OCC1OC(n2ncc(=O)[nH]c2=O)C(O)C1O (stereo unspecified)
T/C [5]: 100 % of control
T/C [6]: 95 % of control
T/C [7]: 101 % of control

COCCn1c(N)c(C(=S)Nc2ccccc2)c(=O)[nH]c1=O
T/C [13]: 101 % of control
T/C [14]: 104 % of control
T/C [15]: 105 % of control

C1CCC(C2CCCC[N-]2)[N-]C1.O.O.[Pd+2] (stereo unspecified)
T/C (dose: 6.25 mg/kg/injection, schedule: Q04DX003 (ip), vehicle: Klucel (hydroxypropylcellulose) (HPC)): 102 % of control
T/C [11]: 96 % of control
T/C (dose: 12.5 mg/kg/injection, schedule: Q04DX003 (ip), vehicle: Klucel (hydroxypropylcellulose) (HPC)): 102 % of control
T/C [12]: 104 % of control
T/C (dose: 25.0 mg/kg/injection, schedule: Q04DX003 (ip), vehicle: Klucel (hydroxypropylcellulose) (HPC)): 102 % of control
T/C (dose: 25.0 mg/kg/injection, schedule: Q04DX003 (ip), vehicle: saline with Tween-80): 98 % of control and 105 % of control
T/C (dose: 50.0 mg/kg/injection, schedule: Q04DX003 (ip), vehicle: Klucel (hydroxypropylcellulose) (HPC)): 101 % of control
T/C (dose: 50.0 mg/kg/injection, schedule: Q04DX003 (ip), vehicle: saline with Tween-80): 96 % of control
T/C [8]: 97 % of control

Cc1ccc(C)c(NC(=O)CCC(=O)C(C)C(=O)c2ccccc2)c1 (stereo unspecified)
T/C [2]: 111 % of control
T/C [3]: 102 % of control
T/C [4]: 108 % of control

COc1cc(/C=C2\SC(=O)N(C)C2=O)ccc1O
T/C [5]: 104 % of control
T/C [6]: 90 % of control
T/C [7]: 87 % of control

C#CCSc1nnnn1-c1ccccc1
T/C [5]: 98 % of control
T/C [6]: 90 % of control
T/C [7]: 90 % of control

O=C1C=C[C@@H](COC(c2ccccc2)(c2ccccc2)c2ccccc2)O1
T/C (dose: 100.0 mg/kg/injection, schedule: Q04DX002 (ip), vehicle: saline with Tween-80): 92 % of control
T/C (dose: 200.0 mg/kg/injection, schedule: Q04DX002 (ip), vehicle: saline with Tween-80): 86 % of control
T/C (dose: 400.0 mg/kg/injection, schedule: Q04DX002 (ip), vehicle: saline with Tween-80): 89 % of control

[Cu+2].[NH-]C(Cc1cnc[nH]1)C(=O)O.[NH-]CC(=O)O (stereo unspecified)
T/C (dose: 6.25 mg/kg/injection, schedule: Q01DX009 (ip), vehicle: saline): 97 % of control
T/C (dose: 12.5 mg/kg/injection, schedule: Q01DX009 (ip), vehicle: saline): 93 % of control and 95 % of control
T/C (dose: 25.0 mg/kg/injection, schedule: Q01DX009 (ip), vehicle: saline): 97 % of control

CC1(C)NC(=O)C2(CC(O)C(O)C(OC(=O)c3ccccc3)C2)O1 (stereo unspecified)
T/C (dose: 25.0 mg/kg/injection, schedule: Q01DX005 (ip), vehicle: saline): 102 % of control
T/C (dose: 50.0 mg/kg/injection, schedule: Q01DX005 (ip), vehicle: saline): 94 % of control
T/C (dose: 100.0 mg/kg/injection, schedule: Q01DX005 (ip), vehicle: saline): 99 % of control

C#CC(C)(CC)OC(=O)c1ccccc1C(=O)O (stereo unspecified)
T/C [13]: 100 % of control
T/C [14]: 104 % of control
T/C [15]: 95 % of control
